Article PMC10470053, “Diverse p120RasGAP interactions with doubly phosphorylated partners EphB4, p190RhoGAP, and Dok1” (The Journal of Biological Chemistry, 2023)
Square brackets hold non-standard residues; d marks the D form. Ends that are not written are not given here. Peptide text beside a SMILES is read from it. pY = N[C@@H](Cc1ccc(OP(=O)(O)O)cc1)C(=O)O

System: RasGAP^FL (full-length RasGAP) GAP activity toward H-Ras
Assay: In vitro GAP assay, single turnover fluorescence-based phosphate sensor
Type: biochemical, human
Conditions: 50 μM peptide, 25 nM RasGAP^FL, 0.8 μM GTP-H-Ras, 1 μM phosphate sensor, 20 mM Tris pH 8, 50 mM NaCl; first 10 min after Mg2+; n = 4 to 14, Mann-Whitney
Text: Finally, to probe whether the conformational movements in the SH2-SH3-SH2 region nonetheless impact catalytic activity in vitro, we conducted GAP assays. […] Our SAXS data for RasGAP^232 may provide a basis for how this is achieved: by inducing local changes in 232 conformations upon peptide engagement. Therefore, we purified full-length RasGAP (residues 1–1047, termed RasGAP^FL, Fig. S2G) and assessed activity against purified H-Ras GTPase domain preloaded with GTP (residues 1–167, Fig. S2H) in a single turnover fluorescence-based phosphate sensor assay that monitors phosphate release in real time ([64]). We find that RasGAP^FL activates H-Ras, as expected (Fig. 6) ([61], [62]). […]
Figure 6 In vitro GAP assays.A, GAP assay for full-length RasGAP activation of GTP-loaded H-Ras. […] Initial rates calculated for each reaction using only the first 10 min after addition of Mg^2+, where the phosphate release rate was linear. […]
H-Ras was preloaded with GTP by mixing purified H-Ras^1-167 protein, 10 mM EDTA, and 10-fold excess GTP in 20 mM Tris pH 8, 100 mM NaCl for 1 h at room temperature. […] Fluorescence excitation and emission settings were 430 nm and 450 nm, respectively with a bandwidth of 10 nm, and readings were taken in 1-min intervals. […]

| Compound | effect of peptide on in vitro GAP activity (initial rate of phosphate release) |
| --- | --- |
| CC[C@H](C)[C@H](NC(=O)[C@H](CCCNC(=N)N)NC(=O)[C@H](CC(C)C)NC(=O)[C@H](CO)NC(=O)[C@H](CC(=O)O)NC(=O)[C@H](CC(C)C)NC(=O)[C@@H]1CCCN1C(=O)[C@H](CCC(=O)O)NC(=O)[C@H](C)NC(=O)[C@H](Cc1ccc(OP(=O)(O)O)cc1)NC(=O)[C@H](CC(C)C)NC(=O)[C@H](C)NC(=O)[C@@H]1CCCN1C(=O)[C@@H]1CCCN1C(=O)[C@H](CO)NC(C)=O)C(=O)N[C@@H](C)C(=O)N1CCC[C@H]1C(=O)N[C@@H](CS)C(=O)N1CCC[C@H]1C(=O)N[C@@H](CO)C(=O)N[C@@H](CCC(N)=O)C(=O)N[C@@H](CC(=O)O)C(=O)N[C@@H](CO)C(=O)N[C@@H](CC(C)C)C(=O)N[C@@H](Cc1ccc(OP(=O)(O)O)cc1)C(=O)N[C@@H](CO)C(=O)N[C@@H](CC(=O)O)C(=O)N1CCC[C@H]1C(=O)N[C@@H](CC(C)C)C(=O)N[C@@H](CC(=O)O)C(=O)N[C@@H](CO)C(=O)N[C@H](C(N)=O)[C@@H](C)O [pYpY Dok1] (Ac-SPPAL[pY]AEPLDSLRIAPCPSQDSL[pY]SDPLDST-NH2) | do not impact GAP activity |
| SD[pY]AEPMDAVVKPRNEEENI[pY]SVPH [pYpY p190RhoGAP-A, Doubly phosphorylated p190RhoGAP-A peptide (pY1087, pY1105)] | do not impact GAP activity |
